Reference: article PMC3318891, “Insights into the In Vivo Regulation of Glutamate Dehydrogenase from the Foot Muscle of an Estivating Land Snail” (Enzyme Research, 2012)

How the values were obtained:
Assay type in all cases: biochemical
[1] = system: T1, 10 day estivated Otala lactea foot muscle GDH; experiment: NADH absorbance at […] nm, glutamate-oxidizing direction; conditions: no ADP, Tris-HCl pH 8.0
T1 construct: native enzyme purified from foot muscle of 10-day estivated snails on GTP-agarose; high-phosphate form, sites unknown

[2] = system: T2, control Otala lactea foot muscle GDH; experiment: as above; conditions: no ADP, Tris-HCl pH 8.0
T2 construct: native enzyme purified from foot muscle of active (control) snails on GTP-agarose; low-phosphate form, sites unknown

[3] = system: T2, control Otala lactea foot muscle GDH; experiment: NADH absorbance at […] nm, glutamate-synthesizing direction; conditions: inhibitor; suboptimal substrates 0.2 mM α-ketoglutarate, 0.15 mM NADH, 40 mM NH4Cl; HEPES pH 7.2
[4] = system: T1, 10 day estivated Otala lactea foot muscle GDH; experiment: as above; conditions: inhibitor; suboptimal substrates 0.2 mM α-ketoglutarate, 0.15 mM NADH, 40 mM NH4Cl; HEPES pH 7.2
[5] = system: T2, control Otala lactea foot muscle GDH; experiment: as above; conditions: no ADP, 0.2 mM NADH, HEPES pH 7.2
[6] = system: T1, 10 day estivated Otala lactea foot muscle GDH; experiment: as above; conditions: no ADP; optimal co-substrates 100 mM NH4Cl, 0.2 mM NADH; HEPES pH 7.2
[7] = system: T2, control Otala lactea foot muscle GDH; experiment: as above; conditions: activation constant (half-maximal activation, not association constant); suboptimal substrates 0.2 mM α-ketoglutarate, 0.15 mM NADH, 40 mM NH4Cl; HEPES pH 7.2
[8] = system: T2, control Otala lactea foot muscle GDH; experiment: NADH absorbance at […] nm, glutamate-oxidizing direction; conditions: activation constant (half-maximal activation, not association constant); suboptimal substrates 10 mM L-glutamate, 0.5 mM NAD+; Tris-HCl pH 8.0
[9] = system: T1, 10 day estivated Otala lactea foot muscle GDH; experiment: as above; conditions: activation constant (half-maximal activation, not association constant); suboptimal substrates 10 mM L-glutamate, 0.5 mM NAD+; Tris-HCl pH 8.0
[10] = optimal co-substrate 50 mM L-glutamate
[11] = optimal co-substrate 1.5 mM NAD+

## NC(=O)c1ccc[n+]([C@@H]2O[C@H](COP(=O)(O)OP(=O)(O)OC[C@H]3O[C@@H](n4cnc5c(N)ncnc54)[C@H](O)[C@@H]3O)[C@@H](O)[C@H]2O)c1 [NAD^+]
[1]; [10]
  Km: 490 ± 20 µM
[2]; [10]
  Km: 590 ± 80 µM

## N[C@@H](CCC(=O)O)C(=O)O [L-glutamate]
[1]; [11]
  Km: 840 ± 20 µM
[2]; [11]
  Km: 900 ± 20 µM

## Nc1nc2c(ncn2[C@@H]2O[C@H](COP(=O)(O)OP(=O)(O)OP(=O)(O)O)[C@@H](O)[C@H]2O)c(=O)[nH]1 [GTP]
[3]
  IC50: 0.34 ± 0.02 µM
[4]
  IC50: 0.15 ± 0.02 µM

## N [NH4 ^+]
[5]; optimal co-substrates 1 mM α-ketoglutarate
  Km: 63000 ± 2000 µM

## O=C(O)CCC(=O)C(=O)O [α-ketoglutarate]
[6]
  Km: 550 ± 50 µM
[5]; optimal co-substrates 100 mM NH4Cl
  Km: 190 ± 30 µM

## Nc1ncnc2c1ncn2[C@@H]1O[C@H](COP(=O)(O)O)[C@@H](O)[C@H]1O [AMP]
[7]
  EC50: 270 ± 40 µM

## Nc1ncnc2c1ncn2[C@@H]1O[C@H](COP(=O)(O)OP(=O)(O)OP(=O)(O)O)[C@@H](O)[C@H]1O [ATP]
[3]
  IC50: 7000 ± 1000 µM

## Nc1ncnc2c1ncn2[C@@H]1O[C@H](COP(=O)(O)OP(=O)(O)O)[C@@H](O)[C@H]1O [ADP]
[8]
  EC50: 4.7 ± 0.7 µM
[9]
  EC50: 3.5 ± 0.5 µM
